# Measured values as given in patent US20250215029A1 (Recludix Pharma, Inc., priority 2022, published 2025).
# pIC50: −log10 of the molar value.
# Biological target: T1, pY705-STAT3 in PBMC (Homo sapiens, UniProt P40763)
# T1 construct: Cryopreserved Peripheral Blood Mononuclear Cells (PBMC) are from AllCells; host or cells: cryopreserved PBMC
# Test: MSD-pSTAT-PBMC Assay (pSTAT3, IL-6 stimulated)
# Format: cell-based
# Details: PBMC, compound 3 hrs, then 10 ng/mL IL-6 for 10 min; Table 115; read-out: STAT3
# Summary of the method: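 pY705-STAT3 was detected electrochemiluminescently on total-STAT3 capture plates, using lysates of human PBMCs given compound for 3 h and then IL-6 (10 ng/mL, 10 min). Values were background-subtracted against unstimulated wells and set relative to DMSO. IC50 was fitted with variable slope.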
# T1 sequence (P40763 whole entry): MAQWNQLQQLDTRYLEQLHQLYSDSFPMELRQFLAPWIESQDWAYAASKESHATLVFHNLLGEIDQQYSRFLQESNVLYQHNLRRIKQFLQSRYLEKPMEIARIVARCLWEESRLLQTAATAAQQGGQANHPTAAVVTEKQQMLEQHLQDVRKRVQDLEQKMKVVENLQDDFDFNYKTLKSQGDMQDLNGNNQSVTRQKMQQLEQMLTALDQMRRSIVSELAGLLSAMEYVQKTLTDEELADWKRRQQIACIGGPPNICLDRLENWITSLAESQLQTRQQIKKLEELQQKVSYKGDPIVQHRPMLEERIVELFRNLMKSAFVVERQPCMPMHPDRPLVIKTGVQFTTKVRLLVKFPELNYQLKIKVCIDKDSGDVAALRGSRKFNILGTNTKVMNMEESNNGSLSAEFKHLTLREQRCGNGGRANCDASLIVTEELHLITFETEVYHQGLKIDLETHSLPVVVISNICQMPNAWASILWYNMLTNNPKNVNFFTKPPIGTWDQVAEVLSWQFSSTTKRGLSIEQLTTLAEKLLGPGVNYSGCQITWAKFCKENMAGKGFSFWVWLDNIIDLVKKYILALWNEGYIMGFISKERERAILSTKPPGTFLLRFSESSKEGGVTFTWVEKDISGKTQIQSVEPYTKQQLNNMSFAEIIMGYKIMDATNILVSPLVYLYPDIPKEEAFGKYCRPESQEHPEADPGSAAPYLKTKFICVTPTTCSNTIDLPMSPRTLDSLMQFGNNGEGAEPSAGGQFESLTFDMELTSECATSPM
row,Structure (SMILES),pIC50
1,"CCCCOC(=O)[C@H](C)NP(=O)(Cc1ccc2sc(C(=O)N[C@H]3CCC[C@H]4CC[C@@H](C(=O)N5CC(c6cccnc6)C5)N4C3=O)cc2c1)N[C@@H](C)C(=O)OCCCC [Compound 420, dibutyl 2,2′-((((2-(((3S,6S,9aS)-5-oxo-3-(3-(pyridin-3-yl)azetidine-1-carbonyl)octahydro-1H-pyrrolo[1,2-a]azepin-6-yl)carbamoyl)benzo [b]thiophen-5-yl)methyl)phosphoryl)bis(azanediyl)) (2S,2′S)-dipropionate]",6.00 to 7.00
2,"CCCOC(=O)[C@H](C)NP(=O)(Oc1ccccc1)[C@H](F)c1ccc2sc(C(=O)N[C@H]3CCC[C@H]4CC[C@@H](C(=O)N5CC(c6cnccc6N6CCOCC6)C5)N4C3=O)cc2c1 (stereo partly drawn) [Compound 1065, propyl (((S)-fluoro(2-(((3S,6S,9aS)-3-(3-(4-morpholinopyridin-3-yl)azetidine-1-carbonyl)-5-oxooctahydro-1H-pyrrolo[1,2-a]azepin-6-yl)carbamoyl)benzo [b]thiophen-5-yl)methyl)(phenoxy)phosphoryl)-L-alaninate]",> 7.00
3,"CCCOC(=O)[C@H](C)N[P@](=O)(Oc1ccccc1)[C@H](F)c1ccc2sc(C(=O)N[C@H]3CCC[C@H]4CC[C@@H](C(=O)N5CC(c6cnccc6OC)C5)N4C3=O)cc2c1 (single isomer, unassigned) [Compound 999]",> 7.00
4,"CC(C)(C)C(=O)SCCOP(=O)(OCCSC(=O)C(C)(C)C)C(F)(F)c1ccc2sc(C(=O)N[C@H]3CCC[C@H]4CC[C@@H](C(=O)NCc5cnc6[nH]cnc6c5)N4C3=O)cc2c1 [Compound 1002, S,S′-(((((2-(((3S,6S,9aS)-3-(((3H-imidazo[4,5-b]pyridin-6-yl)methyl)carbamoyl)-5-oxooctahydro-1H-pyrrolo[1,2-a]azepin-6-yl)carbamoyl)benzo [b]thiophen-5-yl)difluoromethyl)phosphoryl)bis(oxy))bis(ethane-2,1-diyl)) bis(2,2-dimethyl-propanethioate)]",> 7.00
5,"CCCOC(=O)[C@H](C)NP(=O)(Cc1ccc2sc(C(=O)N[C@H]3C[C@H](C)C[C@H]4CC[C@@H](C(=O)N5CC(c6cnccc6C)C5)N4C3=O)cc2c1)Oc1ccccc1 (stereo partly drawn) [Compound 283, propyl (((2-(((3S,6S,8S,9aR)-8-methyl-3-(3-(4-methylpyridin-3-yl)azetidine-1-carbonyl)-5-oxooctahydro-1H-pyrrolo[1,2-a]azepin-6-yl)carbamoyl)benzo [b]thiophen-5-yl)methyl)(phenoxy)phosphoryl)-L-alaninate]",> 7.00
6,"COc1ccncc1C1CN(C(=O)[C@@H]2CC[C@@H]3CCC[C@H](NC(=O)c4cc5cc([C@@H](F)[P@@](=O)(N[C@@H](C)C(=O)OC(C)C)Oc6ccccc6)ccc5s4)C(=O)N32)C1 (single isomer, unassigned) [Compound 955]",> 7.00
7,"CCCOC(=O)[C@H](C)NP(=O)(Oc1ccccc1)[C@@H](F)c1ccc2sc(C(=O)N[C@H]3C[C@@H](C)C[C@H]4CC[C@@H](C(=O)N5CC(c6cnccc6N(C)C)C5)N4C3=O)cc2c1 (stereo partly drawn) [Compound 1029, propyl (((R)-(2-(((3S,6S,8R,9aR)-3-(3-(4-(dimethylamino)pyridin-3-yl)azetidine-1-carbonyl)-8-methyl-5-oxooctahydro-1H-pyrrolo[1,2-a]azepin-6-yl)carbamoyl)benzo [b]thiophen-5-yl)fluoromethyl) (phenoxy)phosphoryl)-L-alaninate]",> 7.00
8,"CCCCOC(=O)[C@@H]1CCCN1P(=O)(Oc1ccccc1)C(F)(F)c1ccc2sc(C(=O)N[C@H]3CCC[C@H]4CC[C@@H](C(=O)N5CC(c6cccnc6)C5)N4C3=O)cc2c1 (stereo partly drawn) [Compound 969, butyl ((difluoro(2-(((3S,6S,9aS)-5-oxo-3-(3-(pyridin-3-yl)azetidine-1-carbonyl)octahydro-1H-pyrrolo[1,2-a]azepin-6-yl)carbamoyl)benzo [b]thiophen-5-yl)methyl)(phenoxy)phosphoryl)-L-prolinate]",< 5.52
9,"CCCOC(=O)[C@H](C)NP(=O)(Oc1ccccc1)C(F)c1ccc2sc(C(=O)N[C@H]3CCC[C@H]4CC[C@@H](C(=O)N5CC(c6cc(F)ccc6OC)C5)N4C3=O)cc2c1 (stereo partly drawn) [Compound 957, propyl ((fluoro(2-(((3S,6S,9aS)-3-(3-(5-fluoro-2-methoxyphenyl)azetidine-1-carbonyl)-5-oxooctahydro-1H-pyrrolo[1,2-a]azepin-6-yl)carbamoyl)benzo [b]thiophen-5-yl)methyl)(phenoxy)phosphoryl)-L-alaninate]",< 5.52
10,"CCCOC(=O)[C@H](C)NP(=O)(Cc1ccc2sc(C(=O)N[C@H]3CCC[C@H]4CC[C@@H](C(=O)N5CC(c6cnccc6N6CC(OC)C6)C5)N4C3=O)cc2c1)Oc1ccccc1 (stereo partly drawn) [Compound 300, propyl (((2-(((3S,6S,9aS)-3-(3-(4-(3-methoxyazetidin-1-yl)pyridin-3-yl)azetidine-1-carbonyl)-5-oxooctahydro-1H-pyrrolo[1,2-aJazepin-6-yl)carbamoyl)benzo [b]thiophen-5-yl)methyl)(phenoxy)phosphoryl)-L-alaninate]",> 7.00
11,"CC(C)COC(=O)[C@H](C)NP(=O)(Cc1ccc2sc(C(=O)N[C@H]3CCC[C@H]4CC[C@@H](C(=O)N5CC(c6cccnc6)C5)N4C3=O)cc2c1)Oc1ccccc1 (stereo partly drawn) [Compound 259, isobutyl (((2-(((3S,6S,9aS)-5-oxo-3-(3-(pyridin-3-yl)azetidine-1-carbonyl)octahydro-1H-pyrrolo[1,2-a]azepin-6-yl)carbamoyl)benzo [b]thiophen-5-yl)methyl)(phenoxy)phosphoryl)-L-alaninate]",> 7.00
12,"CCCOC(=O)[C@H](C)NP(=O)(Cc1ccc2sc(C(=O)N[C@H]3CCC[C@H]4CC[C@@H](C(=O)N5CC(c6cccc(C#N)n6)C5)N4C3=O)cc2c1)Oc1ccccc1 (stereo partly drawn) [Compound 289, propyl (((2-(((3S,6S,9aS)-3-(3-(6-cyanopyridin-2-yl)azetidine-1-carbonyl)-5-oxooctahydro-1H-pyrrolo[1,2-a]azepin-6-yl)carbamoyl)benzo [b]thiophen-5-yl)methyl)(phenoxy)phosphoryl)-L-alaninate]",> 7.00
13,"CC[C@@H](C)OC(=O)[C@H](C)NP(=O)(Cc1ccc2sc(C(=O)N[C@H]3CCC[C@H]4CC[C@@H](C(=O)N5CC(c6cccnc6)C5)N4C3=O)cc2c1)Oc1ccccc1 (stereo partly drawn) [Compound 1016, (R)-sec-butyl (((2-(((3S,6S,9aS)-5-oxo-3-(3-(pyridin-3-yl)azetidine-1-carbonyl)octahydro-1H-pyrrolo[1,2-a]azepin-6-yl)carbamoyl)benzo [b]thiophen-5-yl)methyl)(phenoxy)phosphoryl)-L-alaninate]",6.00 to 7.00
14,"CCCOC(=O)[C@H](C)NP(=O)(Cc1ccc2sc(C(=O)N[C@H]3CCC[C@H]4CC[C@@H](C(=O)N5CC(c6cccnc6)C5)N4C3=O)cc2c1)OCC(F)(F)F (stereo partly drawn) [Compound 428, propyl (((2-(((3S,6S,9aS)-5-oxo-3-(3-(pyridin-3-yl)azetidine-1-carbonyl)octahydro-1H-pyrrolo[1,2-a]azepin-6-yl)carbamoyl)benzo [b]thiophen-5-yl)methyl)(2,2,2-trifluoroethoxy)phosphoryl)-L-alaninate]",> 7.00
15,"CCCOC(=O)[C@H](C)N[P@@](=O)(Oc1ccccc1)[C@H](F)c1ccc2sc(C(=O)N[C@H]3CCC[C@H]4CC[C@@H](C(=O)N5CC(c6cnccc6C)C5)N4C3=O)cc2c1 (single isomer, unassigned) [Compound 1000]",> 7.00
16,"CCCOC(=O)[C@H](C)NP(=O)(Cc1ccc2sc(C(=O)N[C@H]3CCC[C@H]4CC[C@@H](C(=O)N5CC(c6cccnc6C(F)F)C5)N4C3=O)cc2c1)Oc1ccccc1 (stereo partly drawn) [Compound 272, propyl (((2-(((3S,6S,9aS)-3-(3-(2-(difluoromethyl)pyridin-3-yl)azetidine-1-carbonyl)-5-oxooctahydro-1H-pyrrolo[1,2-a]azepin-6-yl)carbamoyl)benzo [b]thiophen-5-yl)methyl)(phenoxy)phosphoryl)-L-alaninate]",> 7.00
17,"CCCOC(=O)[C@H](C)N[P@](=O)(Oc1ccccc1)[C@@H](F)c1ccc2sc(C(=O)N[C@H]3C[C@@H](C)C[C@H]4CC[C@@H](C(=O)N5CC(c6cnccc6OC)C5)N4C3=O)cc2c1 (single isomer, unassigned) [Compound 1059]",> 7.00
18,"O=C(Cc1ccccc1)SCCOP(=O)(OCCSC(=O)Cc1ccccc1)C(F)(F)c1ccc2sc(C(=O)N[C@H]3CCC[C@H]4CC[C@@H](C(=O)N5CC(c6cccnc6)C5)N4C3=O)cc2c1 [Compound 1006, S,S′-((((difluoro(2-(((3S,6S,9aS)-5-oxo-3-(3-(pyridin-3-yl)azetidine-1-carbonyl)octahydro-1H-pyrrolo[1,2-a]azepin-6-yl)carbamoyl)benzo [b]thiophen-5-yl)methyl)phosphoryl)bis(oxy))bis(ethane-2,1-diyl)) bis(2-phenylethanethioate)]",> 7.00
19,"CCCOC(=O)[C@H](C)NP(=O)(Cc1ccc2sc(C(=O)N[C@H]3C[C@@H](C)C[C@H]4CC[C@@H](C(=O)N5CC(c6cncnc6N6CCC6)C5)N4C3=O)cc2c1)Oc1ccccc1 (stereo partly drawn) [Compound 1074, propyl (((2-(((3S,6S,8R,9aR)-3-(3-(4-(azetidin-1-yl)pyrimidin-5-yl)azetidine-1-carbonyl)-8-methyl-5-oxooctahydro-1H-pyrrolo[1,2-a]azepin-6-yl)carbamoyl)benzo [b]thiophen-5-yl)methyl)(phenoxy)phosphoryl)-L-alaninate]",> 7.00
20,"CCCOC(=O)[C@H](C)NP(=O)(Cc1ccc2sc(C(=O)N[C@H]3CCC[C@H]4CC[C@@H](C(=O)N5CC(c6cnccc6O)C5)N4C3=O)cc2c1)Oc1ccccc1 (stereo partly drawn) [Compound 975, propyl (((2-(((3S,6S,9aS)-3-(3-(4-hydroxypyridin-3-yl)azetidine-1-carbonyl)-5-oxooctahydro-1H-pyrrolo[1,2-a]azepin-6-yl)carbamoyl)benzo [b]thiophen-5-yl)methyl)(phenoxy)phosphoryl)-L-alaninate]",> 7.00
